The values below come from ChEMBL document CHEMBL1130881, “Novel imidazole derivatives with subtype-selective antimuscarinic activity (1)” (Bioorg Med Chem Lett, 1998).

The target in this experiment is Muscarinic acetylcholine receptor M3 (Cavia porcellus) (UniProt Q8VH26). Briefly: Antimuscarinic activity was evaluated against muscarinic M3 receptor in Guinea-Pig ileum. In kind it is tissue-based.
Muscarinic acetylcholine receptor M3 (Cavia porcellus), sequence (Q8VH26 1-587): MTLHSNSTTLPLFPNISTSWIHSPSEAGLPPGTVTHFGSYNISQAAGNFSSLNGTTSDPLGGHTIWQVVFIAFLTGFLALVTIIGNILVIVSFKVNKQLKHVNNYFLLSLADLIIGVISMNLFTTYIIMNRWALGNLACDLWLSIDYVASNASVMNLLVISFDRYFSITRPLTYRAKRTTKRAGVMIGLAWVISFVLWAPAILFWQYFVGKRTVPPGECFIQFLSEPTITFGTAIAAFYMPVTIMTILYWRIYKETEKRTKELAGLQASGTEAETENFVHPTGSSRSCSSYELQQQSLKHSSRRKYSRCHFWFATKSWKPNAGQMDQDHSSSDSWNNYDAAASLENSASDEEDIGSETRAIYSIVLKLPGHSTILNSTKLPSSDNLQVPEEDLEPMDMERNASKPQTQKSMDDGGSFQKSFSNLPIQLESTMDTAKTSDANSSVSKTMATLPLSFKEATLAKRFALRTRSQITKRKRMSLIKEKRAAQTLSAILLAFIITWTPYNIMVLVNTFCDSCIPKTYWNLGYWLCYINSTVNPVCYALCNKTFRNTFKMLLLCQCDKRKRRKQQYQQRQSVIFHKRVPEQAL

As for `NC(=O)C(CCn1cnc2ccccc21)(c1ccccc1)c1ccccc1`, the Kb was 2130 nM. With `c1ccc(C(CCN2CCCCC2)c2ccccc2)cc1` the figure was 69.6 nM; with `N#CC(CCN1CCCC1)(c1ccccc1)c1ccccc1`, 65.7 nM; with `Cc1cn(CCC(C(N)=O)(c2ccccc2)c2ccccc2)cn1`, 10.1 nM.

`Cc1nccn1CCC(C(N)=O)(c1ccccc1)c1ccccc1` gave a Kb of 0.32 nM. Consider `Cc1cncn1CCC(C(N)=O)(c1ccccc1)c1ccccc1`, for which the Kb is 0.86 nM. Turning to `Cc1ncn(CCC(C(N)=O)(c2ccccc2)c2ccccc2)c1C`, the Kb amounted to 2.7 nM. With `CCN(CC)CCC(c1ccccc1)c1ccccc1` the figure was 197 nM. With `CC(CC(c1ccccc1)c1ccccc1)NC(C)(C)C` (centres undefined) the figure was 67.7 nM; with `CC(C)(C)c1nccn1CCC(C(N)=O)(c1ccccc1)c1ccccc1`, 30.2 nM.

Compound `CCc1ncn(CCC(C(N)=O)(c2ccccc2)c2ccccc2)c1CC` showed a Kb of 3.98 nM.

`CC(C)(C)NCCC(c1ccccc1)c1ccccc1` showed a Kb of 792 nM. Take `CCCc1ncn(CCC(C(N)=O)(c2ccccc2)c2ccccc2)c1CCC`: the Kb is 100 nM.

Turning to `c1ccc(C(CCn2ccnc2)c2ccccc2)cc1`, the Kb was determined as 89.1 nM. With `NC(=O)C(CCN1CCCC1)(c1ccccc1)c1ccccc1` the figure was 5.59 nM; with `CCCc1nccn1CCC(C(N)=O)(c1ccccc1)c1ccccc1`, 177 nM; with `NC(=O)C(CCn1ccnc1)(c1ccccc1)c1ccccc1`, 5.07 nM. With `CC(C)c1nccn1CCC(C(N)=O)(c1ccccc1)c1ccccc1` the figure was 1.8 nM. As for `CCc1nccn1CCC(C(N)=O)(c1ccccc1)c1ccccc1`, the Kb was found to be 78.1 nM.
